Assay results taken from paper PMC7747594, “Protease-activated receptor-2 ligands reveal orthosteric and allosteric mechanisms of receptor inhibition” (Communications Biology, 2020).
Read-outs that look alike come from different tables or passages of the source.

Assays:
Assay type in all cases: cell-based
rat PAR2 = target: T1, rat PAR2 (Rattus norvegicus, UniProt Q63645); test: Ca^2+ flux assay, inhibition of SLIGRL-NH2 activation in rat KNRK cells
T1 construct: a rat KNRK cell line with endogenous expression of rat PAR2; host or cells: rat KNRK cells
T1 sequence (Q63645 26-397): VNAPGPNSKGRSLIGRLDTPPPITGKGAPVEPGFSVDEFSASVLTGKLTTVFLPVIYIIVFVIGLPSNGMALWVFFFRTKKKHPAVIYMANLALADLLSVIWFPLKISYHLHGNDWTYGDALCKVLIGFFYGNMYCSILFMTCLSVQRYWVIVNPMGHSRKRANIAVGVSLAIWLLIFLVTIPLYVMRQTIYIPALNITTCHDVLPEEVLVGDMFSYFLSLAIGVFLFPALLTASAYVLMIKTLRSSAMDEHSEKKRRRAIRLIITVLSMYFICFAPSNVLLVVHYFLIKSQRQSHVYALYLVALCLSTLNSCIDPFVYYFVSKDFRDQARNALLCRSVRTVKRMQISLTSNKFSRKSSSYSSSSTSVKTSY

hPAR2 [1] = target: T2, hPAR2 (Homo sapiens, UniProt P55085); test: Ca^2+ flux assay (FLIPR), inhibition of SLIGRL-NH2 activation in 1321N1-hPAR2 cells
T2 sequence (P55085 26-397): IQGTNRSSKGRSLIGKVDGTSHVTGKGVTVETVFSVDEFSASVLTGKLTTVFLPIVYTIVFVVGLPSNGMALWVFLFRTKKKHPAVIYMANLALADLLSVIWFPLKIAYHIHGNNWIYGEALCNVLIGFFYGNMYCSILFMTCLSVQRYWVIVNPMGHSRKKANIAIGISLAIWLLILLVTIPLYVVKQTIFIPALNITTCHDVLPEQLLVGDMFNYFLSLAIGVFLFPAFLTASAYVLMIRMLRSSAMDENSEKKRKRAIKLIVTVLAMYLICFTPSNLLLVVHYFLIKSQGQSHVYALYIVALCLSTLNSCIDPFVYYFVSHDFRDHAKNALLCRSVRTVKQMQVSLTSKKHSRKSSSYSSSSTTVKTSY
Method: Cells were loaded with Fluo-8 NW calcium dye (AAT Bioquest) for 30 min at 37 °C before compounds in Hank’s balanced salt solution (HBSS, ThermoFisher Scientific) with 20 mM HEPES (ThermoFisher Scientific), 0.1% bovine serum albumin (BSA, Sigma) and 0.5% DMSO were added and simultaneously evaluated for changes in intracellular [Ca^2+] using FLIPR TETRA (Molecular Devices) to detect agonism. For each concentration, the difference between the maximum peak Ca^2+ response and baseline response is reported. […] Antagonism experiments were also carried out on 1321N1-PAR2[WT], 1321N1-PAR2[F154A], and 1321N1-PAR2[G157C] as described. Experiments with trypsin in 1321N1-hPAR2 cells were performed in the presence of 1 µM Vorapaxar (Chemtronica) to remove any interference of PAR1 activity. […] Antagonism experiments for CHO-hPAR2 and HT-29 cells were performed in 96-well plates at 30,000 cells/well. Cells were loaded with Fluo-3 AM calcium dye (Sigma-Aldrich) for 60 min at 37 °C in HBSS with 1% FBS, 0.2% pluronic acid, 20 mM HEPES and 2.5 mM probenecid prior to the addition of antagonist. The antagonist was pre-incubated for 60 min at 37 °C followed by the addition of bovine trypsin (30 nM) at EC80. Intracellular [Ca^2+] flux was measured using FLIPR TETRA (Molecular Devices) and the difference between the maximum peak Ca^2+ response and baseline response is reported.
(§1) Binding data were analysed using the One site – Fit Ki model in GraphPad Prism 8 (GraphPad Software) to determine binding affinity. Pharmacology in vitro potency data was analysed with a 4-parameter logistic fit using the equation y = Bottom + (Top − Bottom)/[…] where y is the response, x is the 10-logarithm of the drug concentration, Bottom is no response and Top is full response in GraphPad Prism 8 or Genedata Screener (Genedata). pEC50 and pIC50 data are presented as mean ± standard error of the mean (s.e.m.) derived from the number of independent experiments stated. Schild slope analysis was calculated using Graphpad Prism 8 Gaddum/Schild EC50 global fitting (shared model parameters between all data sets) competitive model. […] Schild slope quantifies the shifts in agonist response in the presence of antagonist, a Schild slope of 1 indicates the antagonist is competitive and extra-sum-of-squares F-test (p < 0.05) was used to compare the calculated Schild slope against a hypothetical Schild slope of 1. […] The relative activity was calculated using (EmaxEC50’)/(Emax’EC50) with the Hill slope help constant at 1. EC50’ and Emax’ denote the EC50 and Emax in the absence of allosteric modulator, while EC50 and Emax denote those measured in the presence of allosteric modulator. When the Hill slope = 1, the relative activity plot approaches an asymptote corresponding to the estimate of the γ value.

hPAR2 [2] = target: T2, hPAR2; test: pERK1/2 HTRF assay, inhibition of SLIGRL-NH2 in U2OS-hPAR2 cells
Method: Phosphorylation of ERK1/2 was measured in U2OS-hPAR2 cells using Phospho-ERK1/2 (Thr202/Tyr204) assay kit (64ERKPEH Cisbio) and the 2 plate manufacturer’s protocol with the following modifications. Cells were seeded in McCoy’s 5A media containing 10% FBS at 15,000 cells per well in 384-well plates and incubated overnight at 37 °C, 5% CO2. Antagonist compounds (30 µM–1 nM) were incubated with the cells for 30 min prior to the addition of agonist SLIGRL-NH2 (10 µM) at EC80 and further incubation for 5 min at 37 °C. The supernatant was removed from the wells and lysis buffer was added to the cells and incubated with shaking at room temperature for 30 min. The cell lysate was transferred into a small-volume 384-well plate containing detection antibodies and incubated for 4 h at room temperature in the dark. Plates were read for HTRF signal on PHERAstar (BMG LabTech). In addition, phosphorylation of ERK1/2 was measured in CHO-hPAR2 using AlphaLISA SureFire Ultra pERK1/2 (Thr202/Tyr204) (Perkin Elmer). Cells were seeded at a density of 2000 cells per well in a 384-well proxiplate and incubated overnight. […] After incubation, cell lysis buffer was added with shaking for 30 min. Antibodies and beads were added and incubated for 4 h at room temperature. AlphaLISA signal was measured using a PHERAstar (BMG LabTech).
as §1

[3] = SLIGRL-NH2, rat PAR2 in KNRK cells, mean ± s.e.m., read-out: Ca^2+ flux (rPAR2) pIC50 (converted)
[4] = SLIGRL-NH2, U2OS-hPAR2, mean ± s.e.m., read-out: pERK1/2 (hPAR2) pIC50 (converted)

IC50 (rat PAR2; [3]) [nM] | IC50 (hPAR2 [1]; SLIGRL-NH2, 1321N1-hPAR2 cells, mean ± s.e.m., read-out: Ca^2+ flux (hPAR2) pIC50 (converted)) [nM] | IC50 (hPAR2 [2]; [4]) [nM] | IC50 (hPAR2 [1]; Ca^2+ assay, earlier manuscript version quoted by reviewer, read-out: IC50) [nM] | remaining activity at 0.001319 µM (hPAR2 [1]; log[compound], M -8.87976, individual data points, read-out: SLIGRL-NH2 Ca^2+ mobilisation, antagonist response, Fig 1c source data) [%] | remaining activity at 0.37 µM (hPAR2 [2]; log[compound], M -6.4318, individual data points, read-out: SLIGRL-NH2 phosphorylation of ERK1/2, antagonist response, Fig 1e source data) [%] | Compound | IC50 (rat PAR2) [nM] | IC50 (hPAR2 [1]) [nM] | remaining activity at 1.318 µM (hPAR2 [1]; read-out: SLIGRL-NH2 Ca^2+ mobilisation, antagonist response, Fig 1c source data, log[compound], M -5.88008, individual data points) [%] | remaining activity at 0.4168 µM (hPAR2 [1]; read-out: SLIGRL-NH2 Ca^2+ mobilisation, antagonist response, Fig 1c source data, log[compound], M -6.38007, individual data points) [%] | remaining activity at 0.1318 µM (hPAR2 [1]; read-out: SLIGRL-NH2 Ca^2+ mobilisation, antagonist response, Fig 1c source data, log[compound], M -6.88008, individual data points) [%] | remaining activity at 0.04169 µM (hPAR2 [1]; read-out: SLIGRL-NH2 Ca^2+ mobilisation, antagonist response, Fig 1c source data, log[compound], M -7.37997, individual data points) [%] | remaining activity at 0.01318 µM (hPAR2 [1]; read-out: SLIGRL-NH2 Ca^2+ mobilisation, antagonist response, Fig 1c source data, log[compound], M -7.88008, individual data points) [%] | remaining activity at 0.00417 µM (hPAR2 [1]; read-out: SLIGRL-NH2 Ca^2+ mobilisation, antagonist response, Fig 1c source data, log[compound], M -8.37986, individual data points) [%] | remaining activity at 0.001319 µM (hPAR2 [1]; read-out: SLIGRL-NH2 Ca^2+ mobilisation, antagonist response, Fig 1c source data, log[compound], M -8.87976, individual data points) [%] | IC50 (hPAR2 [2]) [nM] | remaining activity at 3.33 µM (hPAR2 [2]; read-out: SLIGRL-NH2 phosphorylation of ERK1/2, antagonist response, Fig 1e source data, log[compound], M -5.47756, individual data points) [%]
5.01 | 5.01 | 794 | – | – | – | C[C@@H](C1CCCCC1)n1c(-c2cc3c(cc2Br)OCO3)nc2cc(C(=O)Nc3ccncc3)ccc21 [AZ2623] | – | – | – | – | – | – | – | – | – | – | –
3.16 | – | 363 | 2.8 | 77.4 | 45.7 | C[C@@H](C1CCCCC1)n1c(-c2cc3c(cc2Br)OCO3)nc2cc(C(=O)Nc3ccc(C#N)cc3)ccc21 [AZ3451] | – | – | – | – | – | – | – | – | – | – | –
– | – | – | – | – | – | CCCc1cc(F)ccc1C(O)c1ncc[nH]1 (stereo not shown) [AZ8838] | 5010 | 2000 | 77.3 | 83 | 101 | 90.3 | 91.2 | 97.2 | 102 | 2000 | 40.4
